From PubChem BioAssay AID2005 (Sanford-Burnham Center for Chemical Genomics, 2009)
Activity calls are given as the source filed them.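 The calls were made as follows: active = plate Z score at or below -3, or inhibition of at least 30% at 20 µM; inactive = the rest.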

Assay: compounds lowering EGFP fluorescence in F442A cells, dose response, counter-screen for p/CIP destabilizer project (AID 2005);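 also: cells express EGFP alone from a CMV promoter as a counter screen for p/CIP-EGFP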
Details: F442A EGFP cells, EGFP fluorescence, 16 h, stronger effect = higher value

Compound | inhibition (EGFP decrease, at 10 µM) | inhibition (at 20 µM)
O=C1c2ccccc2C(=O)C1c1ccc2ccccc2n1 | 1.9% | -11.6% (inactive)
Cc1ccc(C2C(C#N)=C(N)Oc3cc4c(cc32)OCO4)cc1 (stereo not drawn) | 15.9% | 18.9% (inactive)
Cc1ccccc1CC(=O)Nc1sc(C(C)C)cc1C(=O)N1CCOCC1 | 4.2% | 14.3% (inactive)
CCNS(=O)(=O)c1ccc(OC)c(C(=O)NC2CCCCC2)c1 | 1.8% | 27.8% (inactive)
Cc1ccc(Cn2c(SCC(C)C)nc3c2c(=O)[nH]c(=O)n3C)cc1 | 6.3% | 20.7% (inactive)
CCC1(C)Cc2c(c(=O)n(-c3ccccc3)c3ncnc(N)c23)CO1 (stereo not drawn) | 4.6% | -38.9% (inactive)
COc1cccc(CNC(=O)C2CCN(c3cnccn3)CC2)c1 | -0.8% | 8.6% (inactive)
CCOCCc1nnc(NC(=O)CS(=O)(=O)Cc2ccccc2)s1 | 12% | 6% (inactive)
CCc1ccc(NC(=S)N2CCC(NC(=O)c3ccccc3OC)CC2)cc1 | -7.8% | 5.4% (inactive)
CCCCN(Cc1ccccc1)S(=O)(=O)c1ccc2[nH]c(=O)oc2c1 | 7.9% | 11.8% (inactive)
COc1ccc(NC(=O)N2CCn3c2nc2ccccc23)cc1 | 17.9% | 30.9%
COc1ccccc1C(=O)NC(CCSC)C(=O)NC1CCCCCC1 (stereo not drawn) | 17.2% | 29.7% (inactive)
CCC1=C(OC(=O)N(CC)CC)N2C(=O)OC(=NCC3CC3)[C@]2(C)[C@H]2C1=CC[C@H]1C(=O)N(CC)C(=O)[C@H]12 | -7.5% | -27.5% (inactive)
Cc1cc(C(=O)Nc2cccc(O)c2)c(C)o1 | 7.4% | -9.8% (inactive)
CCOC(=O)C1CCN(C(=O)c2cc(OCC)c(OCC)c(OCC)c2)CC1 | 10.4% | 24.3% (inactive)
COc1ccc(OC)c(Nc2ncnc3c2cnn3-c2ccccc2)c1 | 17.8% | 9.9% (inactive)
Cc1ccc2[nH]c3c(c2c1)CCCC3=O | 28.5% | 27.9% (inactive)
Cc1cc(CN(C)C(=O)c2ccc3nc(Cc4ccccc4F)oc3c2)on1 | 21.3% | 8.5% (inactive)
Cc1cccc(-c2nnc3n2N=C(c2ccccc2Br)CS3)c1 | 18.2% | 10.8% (inactive)
COC(=O)c1[nH]c2c(c1C)C(=O)CC(c1cccs1)C2 (stereo not drawn) | 16.8% | -4.5% (inactive)

Compound | inhibition (EGFP decrease, at 10 µM) | inhibition (at 20 µM)
COCCn1c(SCC(=O)Nc2cc(C)on2)nnc1C(C)C | -1.7% | 0.9% (inactive)
CCOC(=O)c1c(C)n(C)c2cc(OCCN(CC)CC)ccc12 | -6% | 8.6% (inactive)
Cc1cccc(C)c1NC(=O)c1ccccc1C(=O)O | 18.1% | 20.4% (inactive)
COc1ccccc1N1CCN(C(=O)C(CC(C)C)NC(=O)C2CCCCC2)CC1 (stereo not drawn) | -31.4% | 6% (inactive)
Cc1ccc(S(=O)(=O)N/N=C(\c2ccccc2)c2cccnc2)cc1 | 5.5% | 21.7% (inactive)
O=C(CN1CCCCC1)N/N=C/c1cccc(Cl)c1 | 13.5% | 17.4% (inactive)
O=C(NCCSc1ccccn1)c1ccc(Cl)cc1Cl | 19.7% | 3.4% (inactive)
Cc1c(NC(=O)CN2C(=O)NC3(CCC(C)CC3)C2=O)c(=O)n(-c2ccccc2)n1C (stereo not drawn) | 5.2% | 0.8% (inactive)
O=C(NCCc1cccc(F)c1)C1CCCN(c2nc3ccccc3s2)C1 (stereo not drawn) | 16.8% | 0.4% (inactive)
COC(=O)CS(=O)(=O)c1cccc2cccnc12 | 38.4% | 19.7% (inactive)
CCOC(=O)C1=C(N)Oc2cc(C)oc(=O)c2C12C(=O)N1c3c(cc(OC)cc32)C(C)=CC1(C)C (stereo not drawn) | -0.3% | 5.1% (inactive)
CCC(CC)NC(=O)COC(=O)CCC(=O)c1ccc(Cl)cc1 | 5.2% | 24.9% (inactive)
Cn1nnnc1SCC(=O)c1cccs1 | 11.4% | 9.9% (inactive)
O=C(c1ccccc1)N1CCCC(c2nc3c(nnn3Cc3ccccc3)c(=O)[nH]2)C1 (stereo not drawn) | 32.3% | 16.2% (inactive)
CCn1c(SCC(=O)Nc2nc3ccc(C)cc3s2)nc2c(c1=O)SC(C)C2 (stereo not drawn) | 36.6% | 44.7%
COc1cccc(NC(=O)N2CCC(NC(=O)C3CCCCC3)CC2)c1 | 13.5% | 8% (inactive)
CC(=O)Nc1cc2c(cc1C(=O)c1ccc(C)cc1)OCCO2 | 16% | -7.7% (inactive)
Cc1nn(C)c(Cl)c1S(=O)(=O)N[C@@H](c1ccccc1)[C@]1(C)C[C@H]1[C@@H](C)C(=O)Nc1ccc2ccccc2c1 | 34.6% | 11.3% (inactive)
O=C(c1ccc(F)cc1)C1CCN(C(=O)c2c(F)cccc2F)CC1 | 12.9% | 13.5% (inactive)
